The test system of the assay is Jurkat cells. Description: Efficiency of incorporation of AF488-capped glycopolymers into cell membranes, flow cytometry. The format is cell-based. The note with it: 10 μM AF488-capped polymer, 1 h at RT. (In general: In flow cytometry, cells or beads pass a laser one at a time.)

Experimental: Using AF488 labeled polymers, the efficiency with which each glycopolymer was incorporated into cell membranes was measures. Jurkat cells (10^7/mL in serum-free media) were incubated for 1 h at room temperature with 10 μM lipid-conjugated glycopolymer, washed, and then measured for fluorescence by flow cytometry (FIG. 4, panel A).
Jurkat cells were incubated with 10 μM of AF488-capped polymer for 1 h at RT, washed and their fluorescence measured by flow cytometry. […] For FIG. 4-FIG. 5, shown are mean minus background+/−standard deviation of three replicate experiments.
Jurkat cells (10^7/mL) were incubated with AF488-polymers at the given concentration or PBS in serum free media for 1 hr at RT. The cells were then washed, and their fluorescence measured by flow cytometry. Shown are mean and standard deviation of three replicate experiments minus background as measured by cells incubated with PBS instead of polymer.

Take DMPC: the “level of incorporation into cell membranes” value is listed as “highest levels of incorporation”.

Source of the values: patent US20190209697A1, “CELLS LABELLED WITH LIPID CONJUGATES AND METHODS OF USE THEREOF” (priority 2015, published 2019).
